Here are results for 29 molecules from patent US10399988B2, “4-aminopyrazolo[3,4-d]pyrimidinylazabicyclo derivatives and pharmaceutical composition comprising the same” (Daewoong Pharmaceutical Co., Ltd., priority 2016, dated 2019).

Counter-ions that a name gives are not always drawn. A value given as a limit tells only on which side of the number the result lay.

Chain of BTK (Q06187 whole entry): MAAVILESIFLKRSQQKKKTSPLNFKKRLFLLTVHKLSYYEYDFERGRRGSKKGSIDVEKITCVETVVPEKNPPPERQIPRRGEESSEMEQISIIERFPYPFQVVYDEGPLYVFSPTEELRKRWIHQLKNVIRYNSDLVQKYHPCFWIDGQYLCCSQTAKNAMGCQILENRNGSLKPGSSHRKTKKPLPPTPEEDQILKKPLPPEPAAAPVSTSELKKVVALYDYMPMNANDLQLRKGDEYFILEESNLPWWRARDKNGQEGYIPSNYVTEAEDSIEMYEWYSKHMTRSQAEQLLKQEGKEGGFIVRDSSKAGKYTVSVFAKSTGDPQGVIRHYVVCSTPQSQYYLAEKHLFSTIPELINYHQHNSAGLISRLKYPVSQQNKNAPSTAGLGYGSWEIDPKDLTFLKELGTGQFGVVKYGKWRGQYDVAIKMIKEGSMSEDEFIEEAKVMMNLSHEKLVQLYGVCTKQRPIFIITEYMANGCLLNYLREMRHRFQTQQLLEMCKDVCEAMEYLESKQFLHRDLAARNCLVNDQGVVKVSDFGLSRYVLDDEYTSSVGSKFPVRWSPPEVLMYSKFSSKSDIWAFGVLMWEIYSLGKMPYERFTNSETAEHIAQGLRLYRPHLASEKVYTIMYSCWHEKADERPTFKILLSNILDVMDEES

The experiment concerns the target BTK (Homo sapiens, UniProt Q06187). Nature of the experiment: Inhibitory activity against BTK (ADP-Glo + BTK Kinase enzyme system kit). A general note: ADP-Glo first removes unused ATP, then detects ADP through luciferase.
In general, IC50 refers to the concentration that gives 50% inhibition. With `CC#CC(=O)N1CC2CC1C(n1nc(-c3ccc(Oc4ccccc4)cc3)c3c(N)ncnc31)C2` (centres unmarked) [Ex. 5, 1-(6-(4-amino-3-(4-phenoxyphenyl)-1H-pyrazolo[3,4-d]pyrimidin-1-yl)-2-azabicyclo[2.2.1]heptan-2-yl)but-2-yn-1-one], the half-maximal inhibitory concentration (IC50) is 27.6 nM.

As for `C=CC(=O)N1CC2CC1C(n1nc(-c3ccc(Oc4ccncc4)cc3)c3c(N)ncnc31)C2` (centres unmarked) [Ex. 36, 1-(6-(4-amino-3-(4-(pyridin-4-yloxy)phenyl)-1H-pyrazolo[3,4-d]pyrimidin-1-yl)-2-azabicyclo[2.2.1]heptan-2-yl)prop-2-en-1-one], the IC50 was more than 1000 nM. Turning to `CN(C)C/C=C/C(=O)N1CC2CC1C(n1nc(-c3ccc(Oc4ccccc4)cc3)c3c(N)ncnc31)C2` (centres unmarked) [Ex. 45, (E)-1-(6-(4-amino-3-(4-phenoxyphenyl)-1H-pyrazolo[3,4-d]pyrimidin-1-yl)-2-azabicyclo[2.2.1]heptan-2-yl)-4-(dimethylamino)but-2-en-1-one], the IC50 was 11.4 nM. Take `C=CC(=O)N1C[C@@H]2C[C@H]1[C@@H](n1nc(-c3ccc(C(=O)Nc4ncccc4C(F)(F)F)cc3)c3c(N)ncnc31)C2` [Ex. 78, 4-(1-((1S,4R,6S)-2-acryloyl-2-azabicyclo[2.2.1]heptan-6-yl)-4-amino-1H-pyrazolo[3,4-d]pyrimidin-3-yl)-N-(3-(trifluoromethyl)pyridin-2-yl)benzamide]: the IC50 was found to be 5.2 nM. As to `C=CC(=O)N1C[C@@H]2C[C@H]1[C@@H](n1nc(-c3ccc(C(=O)Nc4cc(F)ccn4)cc3F)c3c(N)ncnc31)C2` [Ex. 73, 4-(1-((1S,4R,6S)-2-acryloyl-2-azabicyclo[2.2.1]heptan-6-yl)-4-amino-1H-pyrazolo[3,4-d]pyrimidin-3-yl)-3-fluoro-N-(4-fluoropyridin-2-yl)benzamide], the IC50 was 1.1 nM.

As for `CCC#CC(=O)N1CC2CC1C(n1nc(-c3ccc(Oc4ccccc4)cc3)c3c(N)ncnc31)C2` (centres unmarked) [Ex. 16, 1-(6-(4-amino-3-(4-phenoxyphenyl)-1H-pyrazolo[3,4-d]pyrimidin-1-yl)-2-azabicyclo[2.2.1]heptan-2-yl)pent-2-yn-1-one], the IC50 was more than 1000 nM. `CN1CCN(C/C=C/C(=O)N2CC3CC2C(n2nc(-c4ccc(Oc5ccccc5)cc4)c4c(N)ncnc42)C3)CC1` (centres unmarked) [Ex. 62, (E)-1-(6-(4-amino-3-(4-phenoxyphenyl)-1H-pyrazolo[3,4-d]pyrimidin-1-yl)-2-azabicyclo[2.2.1]heptan-2-yl)-4-(4-methylpiperazin-1-yl)but-2-en-1-one]: the IC50 came out at 5.8 nM. Turning to `C=CC(=O)N1CC2CC1C(n1nc(-c3ccc(C(=O)Nc4cccc(C(C)C)c4)cc3)c3c(N)ncnc31)C2` (centres unmarked) [Ex. 47, 4-(1-(2-acryloyl-2-azabicyclo[2.2.1]heptan-6-yl)-4-amino-1H-pyrazolo[3,4-d]pyrimidin-3-yl)-N-(3-isopropylphenyl)benzamide], the IC50 worked out at 10.9 nM.

Consider `C=CC(=O)N1CC2CC1C(n1nc(-c3ccc(Oc4cccc(C)c4)cc3)c3c(N)ncnc31)C2` (centres unmarked) [Ex. 40, 1-(6-(4-amino-3-(4-(m-tolyloxy)phenyl)-1H-pyrazolo[3,4-d]pyrimidin-1-yl)-2-azabicyclo[2.2.1]heptan-2-yl)prop-2-en-1-one], for which the IC50 stood at 5.5 nM. On to `C=CC(=O)N1CC2CC1CC2n1nc(-c2ccc(C(=O)Nc3ccccc3)cc2)c2c(N)ncnc21` (centres unmarked) [Ex. 23, 4-(1-(2-acryloyl-2-azabicyclo[2.2.1]heptan-5-yl)-4-amino-1H-pyrazolo[3,4-d]pyrimidin-3-yl)-N-phenylbenzamide], for which the IC50 came to 78.8 nM. Take `Nc1ncnc2c1c(-c1ccc(Oc3ccccc3)cc1)nn2C1CC2CC1CN2C(=O)/C=C/CN1CCCCC1` (centres unmarked) [Ex. 66, (E)-1-(5-(4-amino-3-(4-phenoxyphenyl)-1H-pyrazolo[3,4-d]pyrimidin-1-yl)-2-azabicyclo[2.2.1]heptan-2-yl)-4-(piperidin-1-yl)but-2-en-1-one]: the IC50 worked out at 49.6 nM. Take `C=C(C)C(=O)N1C[C@@H]2C[C@@H]1[C@@H](n1nc(-c3ccc(C(=O)Nc4ccccn4)cc3)c3c(N)ncnc31)C2` [Ex. 84, 4-(4-amino-1-((1R,4R,6S)-2-methacryloyl-2-azabicyclo[2.2.1]heptan-6-yl)-1H-pyrazolo[3,4-d]pyrimidin-3-yl)-N-(pyridin-2-yl)benzamide]: the IC50 was more than 100 nM. With `CN1CCN(C/C=C/C(=O)N2CC3CC2C(n2nc(-c4ccc(C(=O)Nc5ccccn5)cc4)c4c(N)ncnc42)C3)CC1` (centres unmarked) [Ex. 61, (E)-4-(4-amino-1-(2-(4-(4-methylpiperazin-1-yl)but-2-enoyl)-2-azabicyclo[2.2.1]heptan-6-yl)-1H-pyrazolo[3,4-d]pyrimidin-3-yl)-N-(pyridin-2-yl)benzamide] the figure was 136 nM; with `C=CC(=O)N1CC2CC1C(n1nc(-c3ccc(C(=O)Nc4ccccc4N(C)C)cc3)c3c(N)ncnc31)C2` (centres unmarked) [Ex. 55, 4-(1-(2-acryloyl-2-azabicyclo[2.2.1]heptan-6-yl)-4-amino-1H-pyrazolo[3,4-d]pyrimidin-3-yl)-N-(2-(dimethylamino)phenyl)benzamide], 8.5 nM; with `C=CC(=O)N1CC2CC1C(n1nc(-c3ccc(NC(=O)c4ccccn4)cc3)c3c(N)ncnc31)C2` (centres unmarked) [Ex. 38, N-(4-(1-(2-acryloyl-2-azabicyclo[2.2.1]heptan-6-yl)-4-amino-1H-pyrazolo[3,4-d]pyrimidin-3-yl)phenyl)picolinamide], 8.2 nM.

Take `C=CC(=O)N1C[C@@H]2C[C@H]1[C@@H](n1nc(-c3ccc(C(=O)Nc4ncccc4C)cc3)c3c(N)ncnc31)C2` [Ex. 77, 4-(1-((1S,4R,6S)-2-acryloyl-2-azabicyclo[2.2.1]heptan-6-yl)-4-amino-1H-pyrazolo[3,4-d]pyrimidin-3-yl)-N-(3-methylpyridin-2-yl)benzamide]: the IC50 was found to be 6.4 nM. `C=CC(=O)N1CC2CC1C(n1nc(-c3ccc(C(=O)Nc4cccc(CC)c4)cc3)c3c(N)ncnc31)C2` (centres unmarked) [Ex. 46, 4-(1-(2-acryloyl-2-azabicyclo[2.2.1]heptan-6-yl)-4-amino-1H-pyrazolo[3,4-d]pyrimidin-3-yl)-N-(3-ethylphenyl)benzamide]: the IC50 was 72 nM.

For `C=CC(=O)N1CC2CC1C(n1nc(-c3ccc(COC)cc3)c3c(N)ncnc31)C2` (centres unmarked) [Ex. 27, 1-(6-(4-amino-3-(4-(methoxymethyl)phenyl)-1H-pyrazolo[3,4-d]pyrimidin-1-yl)-2-azabicyclo[2.2.1]heptan-2-yl)prop-2-en-1-one], the IC50 came to 29.6 nM. With `C=CC(=O)N1CC2CC1CC2n1nc(-c2cccc(C(=O)Nc3ccccc3)c2)c2c(N)ncnc21` (centres unmarked) [Ex. 24, 3-(1-(2-acryloyl-2-azabicyclo[2.2.1]heptan-5-yl)-4-amino-1H-pyrazolo[3,4-d]pyrimidin-3-yl)-N-phenylbenzamide], the concentration for half-maximal inhibition (IC50) stood at 560 nM.

Consider `N#CCC(=O)N1C[C@@H]2C[C@@H]1[C@@H](n1nc(-c3ccc(C(=O)Nc4ccccn4)cc3)c3c(N)ncnc31)C2` [Ex. 74, 4-(4-amino-1-((1R,4R,6S)-2-(2-cyanoacetyl)-2-azabicyclo[2.2.1]heptan-6-yl)-1H-pyrazolo[3,4-d]pyrimidin-3-yl)-N-(pyridin-2-yl)benzamide], for which the IC50 was determined as 123 nM. In the case of `C/C=C/C(=O)N1CC2CC1C(n1nc(-c3ccc(Oc4ccccc4)cc3)c3c(N)ncnc31)C2` (centres unmarked) [Ex. 3, (E)-1-(6-(4-amino-3-(4-phenoxyphenyl)-1H-pyrazolo[3,4-d]pyrimidin-1-yl)-2-azabicyclo[2.2.1]heptan-2-yl)but-2-en-1-one] it was 202 nM; in that of `CC(C)C=C(C#N)C(=O)N1C[C@H]2CC(n3nc(-c4ccc(C(=O)Nc5ccccn5)cc4)c4c(N)ncnc43)[C@H]1C2` (stereo partly drawn) [Ex. 76, 4-(4-amino-1-((1R,4R)-2-(2-cyano-4-methylpent-2-enoyl)-2-azabicyclo[2.2.1]heptan-6-yl)-1H-pyrazolo[3,4-d]pyrimidin-3-yl)-N-(pyridin-2-yl)benzamide], 10 nM. In the case of `CN(C)C/C=C/C(=O)N1CC2CC1C(n1nc(-c3ccc(C(=O)Nc4ccccn4)cc3)c3c(N)ncnc31)C2` (centres unmarked) [Ex. 60, (E)-4-(4-amino-1-(2-(4-(dimethylamino)but-2-enoyl)-2-azabicyclo[2.2.1]heptan-6-yl)-1H-pyrazolo[3,4-d]pyrimidin-3-yl)-N-(pyridin-2-yl)benzamide] it was 36.4 nM; in that of `Nc1ncnc2c1c(-c1ccc(Oc3ccccc3)cc1)nn2C1CC2CC1N(C(=O)/C=C/CBr)C2` (centres unmarked) [Ex. 44, (E)-1-(6-(4-amino-3-(4-phenoxyphenyl)-1H-pyrazolo[3,4-d]pyrimidin-1-yl)-2-azabicyclo[2.2.1]heptan-2-yl)-4-bromobut-2-en-1-one], 5.9 nM.

For `C#CC(=O)N1CC2CC1C(n1nc(-c3cccc(C(=O)Nc4ccc(C(C)C)cc4)c3)c3c(N)ncnc31)C2` (centres unmarked) [Ex. 7, 3-(4-amino-1-(2-propioloyl-2-azabicyclo[2.2.1]heptan-6-yl)-1H-pyrazolo[3,4-d]pyrimidin-3-yl)-N-(4-isopropylphenyl)benzamide], the IC50 turned out to be 31.6 nM. With `C=CC(=O)N1CC2CC1C(n1nc(-c3cccc(C(=O)Nc4ccc(C(C)C)c(C)c4)c3)c3c(N)ncnc31)C2` (centres unmarked) [Ex. 10, 3-(1-(2-acryloyl-2-azabicyclo[2.2.1]heptan-6-yl)-4-amino-1H-pyrazolo[3,4-d]pyrimidin-3-yl)-N-(4-isopropyl-3-methylphenyl)benzamide] the figure was 88 nM; with `C=CC(=O)N1CC2CC1C(n1nc(-c3ccc(C(=O)Nc4cccc(C(F)(F)F)n4)cc3)c3c(N)ncnc31)C2` (centres unmarked) [Ex. 70, 4-(1-(2-acryloyl-2-azabicyclo[2.2.1]heptan-6-yl)-4-amino-1H-pyrazolo[3,4-d]pyrimidin-3-yl)-N-(6-(trifluoromethyl)pyridin-2-yl)benzamide], 6.3 nM; with `C#CC(=O)N1CC2CC1C(n1nc(-c3cccc(C(=O)Nc4ccc(C(C)C)c(C)c4)c3)c3c(N)ncnc31)C2` (centres unmarked) [Ex. 9, 3-(4-amino-1-(2-propioloyl-2-azabicyclo[2.2.1]heptan-6-yl)-1H-pyrazolo[3,4-d]pyrimidin-3-yl)-N-(4-isopropyl-3-methylphenyl)benzamide], 53.8 nM. Turning to `C=CC(=O)N1CC2CC1C(n1nc(-c3ccc(Oc4cccc(N)c4)cc3)c3c(N)ncnc31)C2` (centres unmarked) [Ex. 51, 1-(6-(4-amino-3-(4-(3-aminophenoxy)phenyl)-1H-pyrazolo[3,4-d]pyrimidin-1-yl)-2-azabicyclo[2.2.1]heptan-2-yl)prop-2-en-1-one hydrochloride], the IC50 came to 107 nM.
